What was measured:
[1] = test system: A549 (human non-small cell lung carcinoma) cells; assay: Inhibition of the migration of A549 cells: scratch assay; format: cell-based; conditions: at 30 nM; A549 cells exposed 38 hours; 40 ng/ml HGF
Experimental: Cells from the A549 (human non-small cell lung carcinoma) line are cultured in an incubator at 37° C. in the presence of 5% CO2 in RPMI 1640 medium containing 10% foetal calf serum, 40 ng/ml HGF (hepatocyte growth factor), 2 mM glutamine, 50 units/ml penicillin, 50 μg/ml streptomycin and 10 mM Hepes buffer, pH=7.4. For the migration test, the A549 cells are transferred to 96-well plates (50,000 cells per well) and cultured for 24 hours to obtain cells at confluence. A one-millimetre thick scratch is made in the cell layer, and the cells are exposed to the compounds under test for 38 hours. The cell cultures are then photographed, and filling of the scratch as a result of migration of the cells is assessed.

[2] = test system: human glioblastoma tumour U87-MG; assay: Inhibition of growth of the tumour U87-MG grafted subcutaneously in mice; format: in vivo, female Nude BalbC mouse; conditions: oral route; for inhibition of growth: Day 35
Experimental: The human glioblastoma tumour U87-MG was grafted subcutaneously into the female Nude BalbC mouse in an amount of 10^6 cells. The tumours were then randomised into groups of eight mice once the tumour volume had reached 200 mm^3. Daily treatment (6.25, 12.5, 25 and 50 mg/kg) was administered by the oral route (vehicle=water) over a period of 17 days except for the weekends. The tumour volumes were measured twice a week using a sliding calliper. The inhibition of growth found after administration of the compounds according to the invention is statistically significant (two-factor ANOVA, with measurements repeated over time, followed by a DUNETT's test) at all doses tested between Day 21 and Day 35 (date for ethical sacrifice of the mice in the control group in conformity with ethical rules). […] Regression of the order of 70% is observed at a dose of 50 mg/kg.

Row | melting point | SMILES | also measured
1 | 212 °C | Cl.O=C1Nc2ccc(CN3C(=O)CCC3=O)cc2C1=Cc1cc(CN2CCOCC2)c[nH]1 | –
2 | 192 °C | CCN(CC)Cc1c[nH]c(C=C2C(=O)Nc3ccc(CN4CCOC4=O)cc32)c1.Cl | –
3 | 179 °C | Cl.O=C1Nc2ccc(CN3CCOC3=O)cc2C1=Cc1cc(CN2C[C@H]3C[C@H]3C2)c[nH]1 | –
4 | 244 °C | Cl.O=C1Nc2ccc(CN3CCSC3=O)cc2C1=Cc1cc(CN2CCOCC2)c[nH]1 | –
5 | 210 °C | Cl.O=C1Nc2ccc(CN3CCOC3=O)cc2C1=Cc1c[nH]cc1CN1CCOCC1 | –
6 | 198 °C | Cl.O=C1Nc2ccc(CN3C(=O)[C@H]4C[C@H]4C3=O)cc2C1=Cc1cc(CN2CCCCC2)c[nH]1 | –
7 | 195 °C | Cl.O=C1Nc2ccc(CN3CCOC3=O)cc2C1=Cc1ccc(CN2CCOCC2)[nH]1 | –
8 | 216 °C | Cl.O=C1Nc2ccc(CN3C(=O)COC3=O)cc2C1=Cc1cc(CN2CCOCC2)c[nH]1 | –
9 | 204 °C | Cl.O=C1Nc2ccc(CN3CCOC3=O)cc2C1=Cc1cc(CN2CCCC2)c[nH]1 | –
10 | 256 °C | Cl.O=C1Nc2ccc(CN3CCOC3=O)cc2C1=Cc1cc(CN2CCCCC2)c[nH]1 | –

Second part, the compound before the results:

Row | SMILES | melting point | also measured
11 | CC(=C1C(=O)Nc2ccc(CN3C(=O)COC3=O)cc21)c1cc(CN2CCOCC2)c[nH]1.Cl | 220 °C | –
12 | CC1(C)OC(=O)N(Cc2ccc3c(c2)C(=Cc2cc(CN4CCOCC4)c[nH]2)C(=O)N3)C1=O.Cl | 191 °C | –
13 | Cl.O=C1Nc2ccc(CN3C(=O)CSC3=O)cc2C1=Cc1cc(CN2CCOCC2)c[nH]1 [Example 1, 3-[(3-{[4-(4-Morpholinylmethyl)-1H-pyrrol-2-yl]methylene}-2-oxo-2,3-dihydro-1H-indol-5-yl)methyl]-1,3-thiazolidine-2,4-dione hydrochloride] | – | inhibition of migration (filling of the scratch) [1]: total inhibition; inhibition of growth ([2]; 6.25 mg/kg daily): 102%; inhibition of growth ([2]; 12.5 mg/kg daily): 84%; inhibition of growth ([2]; 25 mg/kg daily): 98%; regression ([2]; 50 mg/kg daily): ~70%
14 | CC(=C1C(=O)Nc2ccc(CN3C(=O)CSC3=O)cc21)c1cc(CN2CCOCC2)c[nH]1.Cl | 225 °C | –
15 | CC(=C1C(=O)Nc2ccc(CN3CCOC3=O)cc21)c1cc(CN2CCOCC2)c[nH]1.Cl | 212 °C | –
16 | O=C1Nc2ccc(CN3CCOC3=O)cc2C1=Cc1[nH]ccc1CN1CCOCC1 [Example 21, 3-(3-Morpholin-4-ylmethyl-1H-pyrrol-2-ylmethylene)-5-(2-oxo-oxazolidin-3-ylmethyl)-1,3-dihydro-indol-2-one] | 192 °C | –
17 | Cl.O=C1Nc2ccc(CCN3C(=O)CSC3=O)cc2C1=Cc1cc(CN2CCOCC2)c[nH]1 | 289 °C (dec.) | –
18 | Cc1[nH]c(C=C2C(=O)Nc3ccc(CN4CCOC4=O)cc32)c(C)c1CN1C[C@H]2CCC[C@H]2C1.Cl | 204 °C | –

From US8133889B2, “Dihydroindolone compounds, a process for their preparation and pharmaceutical compositions containing them” (Les Laboratoires Servier, priority 2009, dated 2012)
